Where “and” joins values, the source holds several entries; their conditions need not be identical. Equal values may be shown once. Where only a bound is given, the exact number is not on record here.

We go through three compounds from EP1477174B1, “Radioactive arsenic-containing compounds and their uses in the treatment of tumors” (TTY Biopharm Company Limited, priority 2003, dated 2004).

For data set [1], the system named is N1-S1 rat hepatoma cells. The data set can be described thus: Therapeutic effect assessment: liver tumor direct injection, rats with liver tumors. The data set is classed as in vivo, Spawn-Dawley rats. Set-up: key to Response: Increase in Size of tumor (In%) is classified as "Poor Response"; decrease in size of tumorwithin 0%∼40% is classified as "MildResponse"; decrease in size of tumor to 50% or more or disappearance of tumor is classified as "Good Response.". As to conditions: for Response / Survival time: 0.45 mg/kg direct into liver tumor, single animals. As for the experimental part: (§1) When cultured to 1.5x10^6 cell/ml, 4x10^6 cell/0.06ml of N1-S1 cells were sampled and then implanted into Spawn-Dawley male rats (5-week-old, 150g) between the liver and liver capsule by surgery, and the wounds were closed by sutures. Rearing of the rats was continued for ten days, and ultrasonic scanning was used to detect any growth of liver tumor and tumor size. After scanning, animals that had developed liver tumors were used to conduct the experiments of tumor growth inhibition, and euthanasia was practiced on the rest of the rats.
The rats with liver tumors were subjected to surgery. After the locations of the liver tumors were found, the tumors were directly injected with normal saline, an injection containing arsenic trioxide without neutron irradiation treatment (concentration: 1 mg/ml; animal injection dosage: 0.45 mg/kg), and the injection prepared in Example 1 which contained radioactive arsenic trioxide having subjected to neutron irradiation treatment (radiation activity range: 2.77-3.25 mCi/ml; concentration: 1 mg/ml of concentration; and animal injection dosage: 0.45 mg/kg), respectively, once every week, twice in total.
(§2) Before injection, the size of the liver tumors was examined by ultrasonic scanning. Ultrasonic scanning was conducted in the first week, the second week, and the fifth week, respectively, after start of the injection to observe the change in size of the tumor. Finally, the rats were sacrificed for observing whether there was metastasis.

Data set [2] deals with human cervical cancer cells. As to conditions: in vitro and in vivo, cervical cancer (Yong-Jin Chun et al. 2002); cited from earlier work.
For data set [3], the system named is relapsed acute promyelocytic leukemia. The following applies: cited from earlier work.
Data set [4] has as its system N1-S1 rat hepatoma cells. Put plainly: Therapeutic effect assessment: continuous tail vein injection, rats with liver tumors. The data set is classed as in vivo, Spawn-Dawley rats. More on the design: key to Response: Increase in size of tumor (In%) is classified as "Poor Response"; decrease in size of tumorwithin 0%∼40% is classified as "MildResponse"; decrease in size of tumor to 50% or more or disappearance of tumor is classified as "Good Response.". As to conditions: for Response / Survival time: 0.45 mg/kg tail vein, continued for two weeks, single animals; for Effect on the inhibition of tumor growth (in words): continuous tail vein injection; for Survival of the rats (in words): tail vein injection, week 8. As for the experimental part:
as §1
The rats with liver tumors were given normal saline, an injection solution containing arsenic trioxide without neutron irradiation treatment (concentration: 1 mg/ml; animal injection dosage: 0.45 mg/kg), and the injection solution prepared in Example 1 which contained radioactive arsenic trioxide having subjected to neutron irradiation treatment(radioactivity range: 2.77-3.25 mCi/ml; concentration: 1 mg/ml; and animal injection dosage: 0.45 mg/kg), respectively, via tail vein injection, and the injection was continued for two weeks.
Before injection, the size of the liver tumors was examined by ultrasonic scanning. Ultrasonic scanning was conducted in the first week, the second week, and the fifth week, respectively, after start of the injection so as to observe the change in size of the tumor. Finally, the rats were sacrificed for observing whether there was metastasis.

For data set [5], the system named is N1-S1 rat hepatoma cells. Put plainly: Therapeutic effect assessment: hepatic artery single injection, rats with liver tumors. As to conditions: for Therapeutic effect (in words): hepatic artery single injection. The data set is classed as in vivo, Spawn-Dawley rats. As for the experimental part:
as §1
The blood vessels of the hepatic artery were dissected from the hepatic tissue of the rats by surgery, and normal saline, an injection solution containing arsenic trioxide without neutron irradiation treatment (concentration: 1 mg/ml; and animal injection dosage: 0.45 mg/kg), and the injection solution prepared in Example 1 which contained radioactive arsenic trioxide having subjected to neutron irradiation treatment (radioactivity range: 2.77-3.25 mCi/ml; concentration: 1 mg/ml; and animal injection dosage: 0.45 mg/kg dose), were injected respectively via the hepatic artery in single injections.
as §2

The next data set has as its system liver tumor. As to conditions: 2 mg/kg for 10 consecutive days (Lin et al. 1999); cited from earlier work.
Data set [6] in a line: Biodistribution test and radiation absorption dose (MIRD method) in rats with liver tumors. The data set is classed as in vivo. The following applies: for Radiation absorption dose, Intestine / Radiation absorption dose, Kidney / Radiation absorption dose, Liver / Radiation absorption dose, Lung / Radiation absorption dose, Muscle / Radiation absorption dose, Spleen / Radiation absorption dose, Tumor: 0.45 mg/kg. As for the experimental part: The hepatic artery was dissected from the hepatic tissue of the rats by surgery. A PE-10 tube was introduced into the hepatic artery, and the test solution containing neutron-irradiated arsenic trioxide as prepared in Example 1 was injected into the hepatic artery. The PE-10 tube was removed after injection, and a surgical thread was used to bind and fix the blood vessels, followed by suturing of the wound.
The test injection solution containing neutron-irradiated arsenic trioxide as prepared in Example 1 was injected into the tail vein using a syringe with needle no. 25.
A fixed amount of radioactive arsenic trioxide (radioactivity range: 2.77-3.25 mCi/ml, concentration: 1 mg/ml, animal injection dose: 0.45 mg/kg) prepared in Example 1 was injected into the rats with liver tumors through the hepatic artery and tail vein, respectively.
The rats were sacrificed by taking a large amount of blood from the heart at hours 2, 4, 16, 24 and 48, respectively, after injection, and the blood, hearts, lungs, livers, spleens, kidneys, intestines, bladders, muscles, and tumors were removed. These tissues or organs were placed in respective tubes, and their irradiation intensity was measured by a gamma counter (Wallac 1470 WIZARD) . The content percentage of arsenic trioxide per each gram of the tissue or organ was calculated using standard curve regression. There were two or three experimented rats in each experimental group.
Radioactive arsenic trioxide was injected respectively into the tail vein and hepatic artery of the rats by I.V. and I.H. The dosage was calculated using MIRD method, and the residence time in each of the organs and the tumors was calculated using Excel software. Finally, the radiation absorption dose in each of the organs or tissues and the tumors was calculated using MIROSE 3 software. Table 3. Radiation absorption dose in each of the organs or tissues and the tumors after injection of radioactive arsenic trioxide into the animals through the tail vein and hepatic artery, respectively, by I.V. and I.H.

The mark [7] stands for this setting: 0.45 mg/kg hepatic artery single injection, single animals.

As to arsenic trioxide [reference compound], in the data set on N1-S1 rat hepatoma cells [1], the Response result was “Poor and Good (decrease in size of tumor to 50% or more or disappearance of tumor is classified as "Good Response.") and Mild (decrease in size of tumorwithin 0%∼40% is classified as "MildResponse")”; the “Survival time” value is >30 days. The “Effect of combined treatment with ionizing radiation (in words)” value in data set [2] is on record as “synergistic effect”. In data set [3] (combination with other drugs (such as GM-CSF), relapsed or ATRA resistant acute promyelocytic leukemia (Muto A et al. 2001)), the “Effect of combination with other drugs (in words)” value is “synergistic therapeutic effect”. Further, the “complete remission (CR) rate” value in data set [3] (intravenously at a dose of 10 mg/d, relapsed acute promyelocytic leukemia (Shen Z.X. et al. 1997)) is listed as 90%. Besides, in data set [3] (low-dose, intravenously, daily dose of 0.08 mg/kg for 28 days (Shen Y et al. 2001)), the complete remission rate is listed as 80%. In the data set with N1-S1 rat hepatoma cells [4], the Response entry is “Poor (3×) and Mild (decrease in size of tumorwithin 0%∼40% is classified as "MildResponse") (2×)”; the “Survival time” value is 14 day (2×) and 42 day and 7 day and 40 day; the “Effect on the inhibition of tumor growth (in words)” value is “not significant”; the “Survival of the rats (in words)” value is recorded as “still alive in week 8”. Besides, in the data set with N1-S1 rat hepatoma cells [5] (setting [7]), the Response entry is “Mild (decrease in size of tumorwithin 0%∼40% is classified as "MildResponse") (2×) and Poor (2×)”; the “Survival time” value is >42 day (2×) and 36 day and 39 day. The “Therapeutic effect (in words)” value in the data set on N1-S1 rat hepatoma cells [5] is given as “not satisfactory”. Besides, the “life of the mice extended to” value with liver tumor is 127.2%.
With radioactive arsenic trioxide, in the data set with N1-S1 rat hepatoma cells [1], the Response entry is given as “Good (decrease in size of tumor to 50% or more or disappearance of tumor is classified as "Good Response.")” and the “Survival time” value was >30 days. The “Change of tumor size (in words)” value with N1-S1 rat hepatoma cells [1] (direct injection into the liver tumors, 4 weeks) is given as “the tumors in all of the animals shrank”. For the same compound, in the data set on N1-S1 rat hepatoma cells [4], the Response entry was “Good (decrease in size of tumor to 50% or more or disappearance of tumor is classified as "Good Response.")”, the “Survival time” value is >56 days, the “Effect on the inhibition of tumor growth (in words)” value is “most noticeable” and the “Survival of the rats (in words)” value is given as “all alive in week 8”. Also, in the data set on N1-S1 rat hepatoma cells [5] (setting [7]), the Response result is given as “Good (decrease in size of tumor to 50% or more or disappearance of tumor is classified as "Good Response.")”, the “Survival time” value was >42 days, the “Tumor size After injection Week 2” value is given as “Disappeared” and the “Tumor size After injection Week 5” value is listed as “Disappeared”. The “Therapeutic effect (in words)” value in the data set with N1-S1 rat hepatoma cells [5] is “complete disappearance of the tumors in some of the animals 2 weeks after injection”. Moreover, in data set [6] (IH (hepatic artery)), the “Radiation absorption dose, Intestine” value was 0.23 mGy/MBq; the “Radiation absorption dose, Kidney” value was determined as 0.28 mGy/MBq; the “Radiation absorption dose, Liver” value worked out at 0.21 mGy/MBq; the “Radiation absorption dose, Lung” value was 0.56 mGy/MBq. In data set [6] (IH (hepatic artery)), the “Radiation absorption dose, Muscle” value is listed as 0.12 mGy/MBq; the “Radiation absorption dose, Spleen” value was 0.95 mGy/MBq; the “Radiation absorption dose, Tumor” value is listed as 21 mGy/MBq. Besides, in data set [6] (IV (tail vein)), the “Radiation absorption dose, Intestine” value is listed as 0.16 mGy/MBq; the “Radiation absorption dose, Kidney” value was 0.25 mGy/MBq; the “Radiation absorption dose, Liver” value was 0.13 mGy/MBq; the “Radiation absorption dose, Lung” value is 0.47 mGy/MBq. In data set [6] (IV (tail vein)), the “Radiation absorption dose, Muscle” value is recorded as 0.06 mGy/MBq; the “Radiation absorption dose, Spleen” value is reported as 0.76 mGy/MBq; the “Radiation absorption dose, Tumor” value turned out to be 4.26 mGy/MBq. Besides, the “Contents of the radioactive arsenic trioxide in the heart, the lung, and the spleen” value in data set [6] (hepatic artery and tail vein injection, hours 2-48 (Figure 3)) was 1-3 % ID/g.
For `S1[As]2S[As]3S[As]2S[As]13` [tetraarsenic tetraslfide], in data set [3] (other arsenic-containing substances (Wang Z.Y. 2001)), the complete remission rates is on record as 84.9%.
